# Key:
# [1] = tested on: LPS induced mice; assay: LPS in vivo assay, model of cytokine repression in vivo; set-up: species or system mice (strain C3HeB/FeJ); settings: 10 or 30 mg/kg i.p. 30 min prior to LPS, blood 90 min after LPS, ELISA, versus vehicle
# Protocol: For the LPS induced model of septic shock, mice receive an intraperitoneal (i.p.) injection of 30 μg bacterial Lipopolysaccharide (LPS; L2630 SIGMA) in saline. Said LPS-mediated initiation of the inflammatory signalling cascade results in increasing blood serum concentrations of cytokines such as e.g. TNFα, IL-6 and IL1β. Blood can be taken from these animals at defined time points. Thereafter, serum will be separated and the samples can be stored at −80° C. until cytokine concentrations are measured using commercial ELISA assays. (A L Moreira et al., Braz J Med Biol Res 1997; 30:1199-1207).
# Wildtype mice (strain C3HeB/FeJ) (age, sex and weight matched) were injected with 30 μg LPS (SIGMA) intraperitoneally. 90 minutes after LPS administration these animals were anaesthetized with 0.1 m1/10 g bodyweight Ketamine-Rompun (50/20 mg/ml), and blood for serum preparation was taken via cardiac puncture.
# Pharmacological treatment groups (n=4) of LPS mice received intraperitoneal (i. p.) injections of CDK-inhibiting compounds or the vehicle (negative control), respectively. In particular, compounds #1A and 16A were administered.
# 10 or 30 mg/kg (compound per bodyweight) of a CDK inhibitor, dissolved in 20% DMSO, 5% Tween 80, 10% Tris 1M pH8, 20% PEG400, 45% PBS was administered as a single dosage 30 min prior to LPS stimulation. Vehicle control was administered in the same manner.
# 90 minutes (min) after LPS stimulation, blood samples were taken from the mice. Previously, the 90 min time point had been identified as the peak of TNF alpha expression in this animal model by a time course experiment.
# Blood samples (˜500 μl/animal) from the LPS animals were incubated on wet ice for 30 min after cardiac puncture. Afterwards the samples were centrifuged for 15 min at 13.000 rpm. Serum was separated from the clot and stored frozen at −80° C.
# Serum concentrations of TNF alpha and IL6 within the samples were measured by using commercial ELISA Kits (Natutec) according to the manufacturers instructions.
# [2] = tested on: LPS induced THP-1 macrophages; assay: In vitro THP-1 assay, model of cytokine inhibition; format: cell-based, human; settings: differentiated THP-1 cells, 60 min pre-incubation, LPS 4-48 h, ELISA, versus vehicle (DMSO)
# Protocol: The human THP-1 cell line can be utilized as an in vitro model of cytokine expression as mediated by Lipopolysaccharide (LPS) or Tumor Necrosis Factorα [TNFα].
# Monocytic THP-1 cells (ATCC; TIB-202) can be differentiated into macrophage-like cells expressing pro-inflammatory cytokines like TNFα, IL6 and IL1β upon induction with LPS or by TNFα (autocrine induction) itself.
# THP-1 cells are grown in modified RPMI-1640 medium (ATCC, Cat. No. 30-2001) supplemented with 10% FCS and 1% Pen/Strep. For cytokine inhibition assays, cells are seeded at a density of 5×10^5 cells/ml into 6-well plates in standard growth medium supplemented with 100 ng/ml PMA (Sigma, P1585) to induce differentiation into macrophage-like cells. After 24 hours, the medium is replaced with standard growth medium (without PMA) and the cells are incubated for another 48 hours to complete differentiation.
# After 72 h of differentiation, the medium is replaced with serum free growth medium, and CDK-inhibiting compounds as well as reference compounds such as positive and negative controls, each dissolved in DMSO are added at concentrations ranging from 0.5 to 5 μM (final concentration of DMSO in the well is 0.1%). Cells are incubated for 60 min with compounds prior to stimulation with 100 ng/ml LPS (Sigma, L2630) for another 4-48 hours. Supernatants are collected and assayed immediately for cytokine expression, e.g. for TNFα, IL-6 and IL-1b using commercially available sandwich ELISA assays (eBioscience, Cat. No 88-7346, 88-7066, 88-7010) or kept frozen at […] until evaluation.
# Concentrations of TNFα, IL6 and IL1β within the cell culture supernatants are measured by using commercial ELISA Kits (eBioscience) according to the manufacturers instructions.
# CDK-inhibitory compounds #1A, 16A, 20A, and 25A were administered to differentiated THP-1 cells in triplicates as described above (see section 2.). After 60 min of pre-incubation with test or reference compound (SB203580, a p38 inhibitor and BMS345541, an IKK-inhibitor) alone, cells were stimulated with LPS. After incubation for 4-48 h, supernatants were collected and ELISA based determinations of cytokine supernatant concentrations were performed as described in section 3, supra.
# [3] = tested on: SNI mice; assay: Spared nerve injury (SNI) model of chronic neuropathic pain, von Frey assay; format: in vivo, mice (strain C3HeB/FeJ); settings: 30 mg/kg p.o., 30 min before measurement, day 107 post SNI, versus vehicle
# Description: As outlined above, the spared nerve injury (SNI) model (see FIG. 1) involves a lesion of two of the three terminal branches of the sciatic nerve (tibial and common peroneal nerves) of experimental animals, leaving the sural nerve intact. SNI results in mechanical and thermal allodynia in the non-injured sural nerve skin territory (Decosterd and Woolf, Pain 2000; 87:149-158. (2) Tsujino et al., Mol. Cel. Neurosci. 2000; 15:170-182).
# Wildtype mice (strain C3HeB/FeJ) (age, sex and weight matched) were anesthetized with Hypnorm (0.315 mg/ml fentanyl citrate+10 mg/ml fluanisone; Janssen)/Hypnovel (5 mg/ml midazolam; Roche Applied Sciences)/water at a ratio of 1:1:2 at 4 μl/g prior to surgical preparation. […]
# 30 mg/kg of a CDK inhibitor, dissolved in 400 μl of 2% Hydroxprolylcellulose; 0.25% Lactic Acid (85% solution) was administered via per oral application 30 min prior to von Frey measurements (mechanical allodynia). […] Reflex nociceptive responses to mechanical stimulation were measured in a von Frey assay 30 min after each injection. […]
# Mechanical thresholds of SNI mice were quantified using the up-down method based on Chaplan et al. (1994) and Malmberg and Basbaum (1998). […]
Structure (SMILES),IL6 protein concentration in the blood serum [1],TNFα protein concentration in the blood serum [1],IL6 protein concentration in the cell supernatant [2],TNFα protein concentration in the cell supernatant [2],paw withdrawal threshold to mechanical stimulation (von Frey) [3]
"CCOc1ccccc1-c1cc(NC(=O)C2CCNCC2)ncn1 [Compound 1A, Piperidine-4-carboxylic acid [6-(2-ethoxy-phenyl)-pyrimidin-4-yl]-amide]",significant repressive effect,significant repressive effect,significant inhibitory effect,significant inhibitory effect,
"COc1ccccc1-c1cc(NC(=O)C2CCCNC2)ncn1 (stereo not drawn) [Compound 16A, Piperidine-3-carboxylic acid [6-(2-methoxy-phenyl)-pyrimidin-4-yl]amide]",significant repressive effect,significant repressive effect,significant inhibitory effect,significant inhibitory effect,significant increase of threshold values
